Data published in patent US10100049B2, “JAK kinase inhibitor compounds for treatment of respiratory disease” (THERAVANCE BIOPHARMA R&D IP, LLC, priority 2015, dated 2018).
Where two headings read alike, the source gives them in different places.

Key:
[1] = tested on: IL-13 induced STAT6 phosphorylation in BEAS-2B human lung epithelial cells; experiment: AlphaScreen cellular potency assay, IL-13 induced STAT6 phosphorylation in BEAS-2B cells; format: cell-based; conditions: for IC50: Homo sapiens
Experimental: The AlphaScreen JAM cellular potency assay was carried out by measuring interleukin-13 (IL-13, R&D Systems) induced STAT6 phosphorylation in BEAS-2B human lung epithelial cells (ATCC). The anti-STAT6 antibody (Cell Signaling Technologies) was conjugated to AlphaScreen acceptor beads (Perkin Elmer), while the anti-pSTAT6 (pTyr641) antibody (Cell Signaling Technologies) was biotinylated using EZ-Link Sulfo-NHS-Biotin (Thermo Scientific).
BEAS-2B cells were grown at 37° C. in a 5% CO2 humidified incubator in 50% DMEM/50% F-12 medium (Life Technologies) supplemented with 10% FBS (Hyclone), 100 U/mL penicillin, 100 μg/mL streptomycin (Life Technologies), and 2 mM GlutaMAX (Life Technologies). On day 1 of the assay, cells were seeded at a 7,500 cells/well density in white poly-D-lysine-coated 384-well plates (Corning) with 25 μL medium, and were allowed to adhere overnight in the incubator. On day 2 of the assay, the medium was removed and replaced with 12 μL of assay buffer (Hank's Balanced Salt Solution/HBSS, 25 mM HEPES, and 1 mg/ml bovine serum albumin/BSA) containing dose-responses of test compounds. Compounds were serially diluted in DMSO and then diluted another 1000-fold in media to bring the final DMSO concentration to 0.1%. Cells were incubated with test compounds at 37° C. for 1 h, and followed by the addition of 12 μl of pre-warmed IL-13 (80 ng/ml in assay buffer) for stimulation. After incubating at 37° C. for 30 min, the assay buffer (containing compound and IL-13) was removed, and 10 μl of cell lysis buffer (25 mM HEPES, 0.1% SDS, 1% NP-40, 5 mM MgCl2, 1.3 mM EDTA, 1 mM EGTA, and supplement with Complete Ultra mini protease inhibitors and PhosSTOP from Roche Diagnostics). The plates were shaken at ambient temperature for 30 min before the addition of detection reagents. A mixture of biotin-anti-pSTAT6 and anti-STAT6 conjugated acceptor beads was added first and incubated at ambient temperature for 2 h, followed by the addition of streptavidin conjugated donor beads (Perkin Elmer). After a minimum of 2 h incubation, the assay plates were read on the EnVision plate reader.
Results were expressed as the negative logarithm of the IC50 value, pIC50.

JAK1 = JAK1 (Homo sapiens (Human), UniProt P23458); experiment: LanthaScreen JAK biochemical assay (JAK1); conditions: for fold less potent than the corresponding compound of the invention in the enzyme assay: JAK1 enzyme assay
JAK1, sequence (P23458 whole entry): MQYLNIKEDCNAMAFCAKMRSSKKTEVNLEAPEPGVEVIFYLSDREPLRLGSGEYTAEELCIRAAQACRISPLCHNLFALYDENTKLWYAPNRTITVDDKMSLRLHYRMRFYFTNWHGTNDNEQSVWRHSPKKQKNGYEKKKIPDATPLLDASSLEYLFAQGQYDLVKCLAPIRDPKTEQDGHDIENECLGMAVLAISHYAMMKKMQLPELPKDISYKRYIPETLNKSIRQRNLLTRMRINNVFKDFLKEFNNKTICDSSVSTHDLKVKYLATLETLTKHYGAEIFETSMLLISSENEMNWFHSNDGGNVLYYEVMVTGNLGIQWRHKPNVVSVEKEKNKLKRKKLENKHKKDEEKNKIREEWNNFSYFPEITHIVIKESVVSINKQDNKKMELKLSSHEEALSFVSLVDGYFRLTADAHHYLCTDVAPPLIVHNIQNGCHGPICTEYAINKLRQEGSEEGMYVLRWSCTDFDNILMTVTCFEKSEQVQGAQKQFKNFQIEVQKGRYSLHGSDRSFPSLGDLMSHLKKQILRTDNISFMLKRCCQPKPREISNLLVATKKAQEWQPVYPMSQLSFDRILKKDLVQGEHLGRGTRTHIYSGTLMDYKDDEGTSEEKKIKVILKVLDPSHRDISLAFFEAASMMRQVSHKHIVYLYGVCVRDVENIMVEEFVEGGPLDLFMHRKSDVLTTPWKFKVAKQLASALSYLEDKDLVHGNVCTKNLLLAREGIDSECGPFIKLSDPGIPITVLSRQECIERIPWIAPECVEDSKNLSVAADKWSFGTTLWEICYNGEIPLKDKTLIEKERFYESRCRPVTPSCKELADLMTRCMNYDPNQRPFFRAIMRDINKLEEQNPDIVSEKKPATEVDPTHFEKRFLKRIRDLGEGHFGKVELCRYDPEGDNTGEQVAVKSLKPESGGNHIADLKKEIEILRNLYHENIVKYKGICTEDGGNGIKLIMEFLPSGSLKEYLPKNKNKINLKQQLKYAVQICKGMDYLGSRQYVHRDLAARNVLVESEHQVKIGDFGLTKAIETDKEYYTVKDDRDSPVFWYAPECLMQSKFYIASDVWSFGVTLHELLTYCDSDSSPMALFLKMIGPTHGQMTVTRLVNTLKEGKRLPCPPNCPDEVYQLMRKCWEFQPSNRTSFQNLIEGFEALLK

[2] = tested on: IL-13 induced pSTAT6 in lung tissue; experiment: Murine model of IL-13 induced pSTAT6 induction in lung tissue; format: in vivo; conditions: mouse lung; for factor by which lung concentration was smaller than that of the corresponding compound of the invention: pharmacodynamic assay; for inhibition in vivo at 500 µg/mL: 0.5 mg/mL, 50 μL oral aspiration, IL-13 challenge 4 h after dosing, lungs collected 1 h later, read-out: pSTAT6 inhibition Assay 5
Experimental: Il-13 is an important cytokine underlying the pathophysiology of asthma (Kudlacz et al. Eur. J. Pharmacol, 2008, 582, 154-161). IL-13 binds to cell surface receptors activating members of the Janus family of kinases (JAK) which then phosphorylate STAT6 and subsequently activates further transcription pathways. In the described model, a dose of IL-13 was delivered locally into the lungs of mice to induce the phosphorylation of STAT6 (pSTAT6) which is then measured as the endpoint.
Adult balb/c mice from Harlan were used in the assay. On the day of study, animals were lightly anesthetized with isoflurane and administered either vehicle or test compound (0.5 mg/mL, 50 μL total volume over several breaths) via oral aspiration. Animals were placed in lateral recumbency post dose and monitored for full recovery from anesthesia before being returned to their home cage. Four hours later, animals were once again briefly anesthetized and challenged with either vehicle or IL-13 (0.03 μg total dose delivered, 50 μL total volume) via oral aspiration before being monitored for recovery from anesthesia and returned to their home cage. One hour after vehicle or IL-13 administration, lungs were collected for both pSTAT6 detection using an anti-pSTAT6 ELISA (rabbit mAb capture/coating antibody; mouse mAb detection/report antibody: anti-pSTAT6-pY641; secondary antibody: anti-mouse IgG-HRP) and analyzed for total drug concentration as described above in Assay 4.
Selected compounds of the invention were tested in the assay. Activity in the model is evidenced by a decrease in the level of pSTAT6 present in the lungs of treated animals at 5 hours compared to the vehicle treated, IL-13 challenged control animals. The difference between the control animals which were vehicle-treated, IL-13 challenged and the control animals which were vehicle-treated, vehicle challenged dictated the 0% and 100% inhibitory effect, respectively, in any given experiment.

[3] = Dynamic moisture sorption assessment; format: physicochemical
Experimental: Dynamic moisture sorption (DMS) measurement was performed using a VTI atmospheric microbalance, SGA-100 system (VTI Corp., Hialeah, Fla. 33016). A weighed sample was used and the humidity was lowest possible value (close to 0% RH) at the start of the analysis. The DMS analysis consisted of an initial drying step (˜0% RH) for 120 minutes, followed by two cycles of sorption and desorption with a scan rate of 5% RH/step over the humidity range of 5% RH to 90% RH. The DMS run was performed isothermally at 25° C.

JAK3 = JAK3 (Homo sapiens (Human), UniProt P52333); experiment: LanthaScreen JAK biochemical assay (JAK3); conditions: ATP at Km 1.6 μM; read-out: JAK 3 (pKi) (converted)
JAK3, sequence (P52333 whole entry): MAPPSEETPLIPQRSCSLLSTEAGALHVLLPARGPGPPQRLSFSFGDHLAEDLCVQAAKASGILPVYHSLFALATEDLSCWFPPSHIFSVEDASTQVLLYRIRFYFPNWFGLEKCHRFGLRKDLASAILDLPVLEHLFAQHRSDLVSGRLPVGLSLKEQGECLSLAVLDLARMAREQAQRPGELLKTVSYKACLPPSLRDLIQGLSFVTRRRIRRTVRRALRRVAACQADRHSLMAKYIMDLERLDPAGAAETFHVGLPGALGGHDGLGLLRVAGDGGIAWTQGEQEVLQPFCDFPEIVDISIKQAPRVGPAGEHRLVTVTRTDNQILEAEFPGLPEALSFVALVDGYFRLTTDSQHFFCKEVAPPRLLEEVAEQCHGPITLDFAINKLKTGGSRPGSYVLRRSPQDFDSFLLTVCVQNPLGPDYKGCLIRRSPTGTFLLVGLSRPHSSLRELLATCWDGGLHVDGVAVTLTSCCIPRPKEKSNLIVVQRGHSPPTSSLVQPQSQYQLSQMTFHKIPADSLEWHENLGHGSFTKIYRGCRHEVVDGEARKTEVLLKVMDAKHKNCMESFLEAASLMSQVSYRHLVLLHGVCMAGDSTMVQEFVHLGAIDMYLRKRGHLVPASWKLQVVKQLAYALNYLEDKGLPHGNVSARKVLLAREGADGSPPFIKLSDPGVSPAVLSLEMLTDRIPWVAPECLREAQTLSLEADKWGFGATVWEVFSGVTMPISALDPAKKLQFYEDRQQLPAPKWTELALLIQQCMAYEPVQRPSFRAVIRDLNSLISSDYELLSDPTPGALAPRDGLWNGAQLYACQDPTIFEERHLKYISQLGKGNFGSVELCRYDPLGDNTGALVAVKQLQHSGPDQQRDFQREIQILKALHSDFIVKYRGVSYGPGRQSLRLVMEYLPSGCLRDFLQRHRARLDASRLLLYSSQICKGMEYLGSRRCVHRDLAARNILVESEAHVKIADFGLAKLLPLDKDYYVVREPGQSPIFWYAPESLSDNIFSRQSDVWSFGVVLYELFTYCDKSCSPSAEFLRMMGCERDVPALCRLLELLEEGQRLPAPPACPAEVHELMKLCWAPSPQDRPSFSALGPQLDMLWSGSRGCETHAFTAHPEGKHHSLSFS

JAK2 = JAK2 (Homo sapiens (Human), UniProt O60674)
JAK2, sequence (O60674 whole entry): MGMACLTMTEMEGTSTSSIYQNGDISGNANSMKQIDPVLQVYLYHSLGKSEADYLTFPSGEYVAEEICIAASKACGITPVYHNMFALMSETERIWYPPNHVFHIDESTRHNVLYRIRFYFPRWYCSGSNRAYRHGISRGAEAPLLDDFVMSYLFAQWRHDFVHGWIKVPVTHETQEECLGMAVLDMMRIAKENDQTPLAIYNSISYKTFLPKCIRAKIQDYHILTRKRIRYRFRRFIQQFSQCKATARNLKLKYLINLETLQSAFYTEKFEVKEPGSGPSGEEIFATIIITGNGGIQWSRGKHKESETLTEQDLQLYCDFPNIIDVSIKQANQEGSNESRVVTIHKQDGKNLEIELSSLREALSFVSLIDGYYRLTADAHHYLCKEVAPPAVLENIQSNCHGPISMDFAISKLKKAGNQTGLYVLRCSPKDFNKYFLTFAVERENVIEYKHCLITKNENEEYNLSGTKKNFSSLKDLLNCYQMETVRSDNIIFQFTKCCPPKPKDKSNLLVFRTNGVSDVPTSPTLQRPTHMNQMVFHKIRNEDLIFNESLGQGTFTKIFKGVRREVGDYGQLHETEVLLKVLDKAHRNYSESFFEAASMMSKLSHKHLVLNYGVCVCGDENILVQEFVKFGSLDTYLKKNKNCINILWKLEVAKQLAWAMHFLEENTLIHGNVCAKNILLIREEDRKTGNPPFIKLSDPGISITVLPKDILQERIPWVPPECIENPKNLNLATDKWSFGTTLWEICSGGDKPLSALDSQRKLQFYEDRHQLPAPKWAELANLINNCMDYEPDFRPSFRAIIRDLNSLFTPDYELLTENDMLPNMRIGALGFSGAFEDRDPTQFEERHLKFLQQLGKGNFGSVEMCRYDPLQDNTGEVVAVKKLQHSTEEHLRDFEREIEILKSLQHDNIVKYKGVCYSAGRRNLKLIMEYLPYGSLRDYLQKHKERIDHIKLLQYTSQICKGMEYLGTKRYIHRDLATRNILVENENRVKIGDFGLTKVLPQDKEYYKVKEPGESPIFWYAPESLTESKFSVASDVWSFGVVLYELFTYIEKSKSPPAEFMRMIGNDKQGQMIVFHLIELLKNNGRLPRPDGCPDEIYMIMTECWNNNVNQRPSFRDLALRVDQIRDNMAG

Tyk2 = Tyk2 (Homo sapiens (Human), UniProt P29597); experiment: LanthaScreen JAK biochemical assay (Tyk2); conditions: read-out: Tyk 2 (PKi); note: ATP at Km 10 µM
Tyk2, sequence (P29597 whole entry): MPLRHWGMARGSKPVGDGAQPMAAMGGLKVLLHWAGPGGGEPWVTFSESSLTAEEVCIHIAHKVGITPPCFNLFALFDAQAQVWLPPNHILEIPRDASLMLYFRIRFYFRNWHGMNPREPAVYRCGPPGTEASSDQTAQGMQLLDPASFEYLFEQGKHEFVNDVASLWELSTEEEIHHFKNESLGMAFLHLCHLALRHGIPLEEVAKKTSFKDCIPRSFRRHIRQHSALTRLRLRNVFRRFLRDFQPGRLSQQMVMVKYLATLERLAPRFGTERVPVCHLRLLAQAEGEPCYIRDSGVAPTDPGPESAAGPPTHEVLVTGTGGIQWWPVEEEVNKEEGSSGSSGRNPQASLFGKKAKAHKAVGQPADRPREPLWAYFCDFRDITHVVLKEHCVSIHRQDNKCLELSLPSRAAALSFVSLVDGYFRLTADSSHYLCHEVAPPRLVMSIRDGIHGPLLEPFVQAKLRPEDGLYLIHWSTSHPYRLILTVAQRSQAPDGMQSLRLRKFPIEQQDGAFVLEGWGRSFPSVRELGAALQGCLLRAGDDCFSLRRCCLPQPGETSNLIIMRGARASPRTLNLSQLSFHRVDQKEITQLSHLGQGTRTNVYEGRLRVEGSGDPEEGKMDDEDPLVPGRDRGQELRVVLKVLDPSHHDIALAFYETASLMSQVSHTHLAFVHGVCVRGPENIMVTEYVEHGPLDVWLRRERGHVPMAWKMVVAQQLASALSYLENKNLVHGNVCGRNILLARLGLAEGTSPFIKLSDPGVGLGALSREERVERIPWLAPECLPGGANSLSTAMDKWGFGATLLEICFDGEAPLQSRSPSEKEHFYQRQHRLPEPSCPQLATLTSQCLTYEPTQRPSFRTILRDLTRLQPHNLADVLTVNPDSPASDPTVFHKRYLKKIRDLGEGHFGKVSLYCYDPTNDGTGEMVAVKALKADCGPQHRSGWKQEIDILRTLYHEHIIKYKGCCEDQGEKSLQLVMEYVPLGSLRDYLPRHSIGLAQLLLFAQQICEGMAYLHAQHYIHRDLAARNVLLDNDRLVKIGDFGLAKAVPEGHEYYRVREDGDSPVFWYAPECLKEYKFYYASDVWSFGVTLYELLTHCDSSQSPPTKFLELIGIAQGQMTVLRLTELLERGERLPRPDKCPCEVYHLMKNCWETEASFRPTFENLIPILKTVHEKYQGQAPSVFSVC

[4] = Pharmacokinetics in plasma and lung in mouse; format: in vivo; conditions: oral aspiration 0.2 mg/mL 50 uL, lung AUC (μg hr/g) / plasma AUC (μg hr/mL)
Experimental: Plasma and lung levels of test compounds and ratios thereof were determined in the following manner. BALB/c mice from Charles River Laboratories were used in the assay. Test compounds were individually formulated in 20% propylene glycol in pH 4 citrate buffer at a concentration of 0.2 mg/mL and 50 uL of the dosing solution was introduced into the trachea of a mouse by oral aspiration. At various time points (typically 0.167, 2, 6, 24 hr) post dosing, blood samples were removed via cardiac puncture and intact lungs were excised from the mice. Blood samples were centrifuged (Eppendorf centrifuge, 5804R) for 4 minutes at approximately 12,000 rpm at 4° C. to collect plasma. Lungs were padded dry, weighed, and homogenized at a dilution of 1:3 in sterile water. Plasma and lung levels of test compound were determined by LC-MS analysis against analytical standards constructed into a standard curve in the test matrix. A lung to plasma ratio was determined as the ratio of the lung AUC in μg hr/g to the plasma AUC in μg hr/mL, where AUC is conventionally defined as the area under the curve of test compound concentration vs. time.

[5] = tested on: Alternaria-induced BALF eosinophils; experiment: Murine model of Alternaria alternata-induced eosinophilic inflammation of the lung; format: in vivo; conditions: mouse; maximum statistically significant inhibition; 0.1-1.0 mg/mL, 50 μL oropharyngeal aspiration; BALF 48 h after alternaria
Experimental: Airway eosinophilia is a hallmark of human asthma. Alternaria alternata is a fungal aeroallergen that can exacerbate asthma in humans and induces eosinophilic inflammation in the lungs of mice (Havaux et al. Clin Exp Immunol. 2005, 139(2):179-88).
Seven- to nine-week old male C57 mice from Taconic were used in the study. On the day of study, animals were lightly anesthetized with isoflurane and administered either vehicle or test compound (0.1-1.0 mg/mL, 50 μL total volume over several breaths) via oropharyngeal aspiration. Animals were placed in lateral recumbency post dose and monitored for full recovery from anesthesia before being returned to their home cage. One hour later, animals were once again briefly anesthetized and challenged with either vehicle or alternaria extract (200 ug total extract delivered, 50 μL total volume) via oropharyngeal aspiration before being monitored for recovery from anesthesia and returned to their home cage. Forty-eight hours after alternaria administration, bronchoalveolar lavage fluid (BALF) was collected and eosinophils were counted in the BALF using the Advia 120 Hematology System (Siemens).
Selected compounds of the invention were tested in this alternaria assay. Activity in the model is evidenced by a decrease in the level of eosinophils present in the BALF of treated animals at forty-eight hours compared to the vehicle treated, alternaria challenged control animals. Data are expressed as percent inhibition of the vehicle treated, alternaria challenged BALF eosinophils response. To calculate percent inhibition, the number of BALF eosinophils for each condition is converted to percent of the average vehicle treated, alternaria challenged BALF eosinophils and subtracted from one-hundred percent.

[6] = BEAS-2B, read-out: BEAS-2B pIC50 (cellular potency) (converted)
[7] = read-out: pKi, JAK1 enzyme assay (converted)
[8] = IL-13 induced STAT6 phosphorylation, BEAS-2B cells, read-out: BEAS-2B pIC50 (converted)

## CCc1cc(O)c(F)cc1-c1ccc2c(-c3nc4c([nH]3)CCN(CC3CCCN3C3COC3)C4)n[nH]c2c1 (stereo not drawn) [Example 4-8]
[1]; [6]
  IC50: 39.8 to 1000 nM
JAK1; [7]
  Ki: 1 to 3.16 nM

## CCc1cc(O)c(F)cc1-c1ccc2c(-c3nc4c([nH]3)CCN(CC3CCN3C3COC3)C4)n[nH]c2c1 (stereo not drawn) [Example 8-11]
[1]; [6]
  IC50: 39.8 to 1000 nM
JAK1; [7]
  Ki: 1 to 3.16 nM

## CCc1cc(O)c(F)cc1-c1ccc2c(-c3nc4c([nH]3)CCN(C3CCC(C)CC3)C4)n[nH]c2c1 (stereo not drawn) [Example C-4, reference compound]
[2]
  factor by which lung concentration was smaller than that of the corresponding compound of the invention: 23
[1]
  fold less potent than the corresponding compound of the invention in the BEAS-2B cellular assay: 6 fold
JAK1
  fold less potent than the corresponding compound of the invention in the enzyme assay: 2.5 fold

## CCc1cc(O)c(F)cc1-c1ccc2c(-c3nc4c([nH]3)CCN(C3CC(C)C3)C4)n[nH]c2c1 (stereo not drawn) [Example C-1, 5-Ethyl-2-fluoro-4-(3-(5-(3-methylcyclobutyl)-4,5,6,7-tetrahydro-1H-imidazo[4,5-c]pyridin-2-yl)-1H-indazol-6-yl)phenol, reference compound]
[2]
  factor by which lung concentration was smaller than that of the corresponding compound of the invention: 36
[1]
  fold less potent than the corresponding compound of the invention in the BEAS-2B cellular assay: 6 fold
JAK1
  fold less potent than the corresponding compound of the invention in the enzyme assay: 2 fold

## CCc1cc(O)c(F)cc1-c1ccc2c(-c3nc4c([nH]3)CCN(C3CCN(C)CC3)C4)n[nH]c2c1 [crystalline hydrate, Crystalline hydrate of 5-ethyl-2-fluoro-4-(3-(5-(1-methylpiperidin-4-yl)-4,5,6,7-tetrahydro-1H-imidazo[4,5-c]pyridin-2-yl)-1H-indazol-6-yl)phenol]
[3]; 5% to 90% relative humidity, about 25° C.
  weight gain (moisture sorption): less than 0.12%
[3]; two cycles of sorption and desorption
  hygroscopicity: non-hygroscopic

## CCc1cc(O)c(F)cc1-c1ccc2c(-c3nc4c([nH]3)CCN(CCC(C)C)C4)n[nH]c2c1 [Example C-2, reference compound]
[2]
  factor by which lung concentration was smaller than that of the corresponding compound of the invention: 52
[1]
  fold less potent than the corresponding compound of the invention in the BEAS-2B cellular assay: 6 fold
JAK1
  fold less potent than the corresponding compound of the invention in the enzyme assay: 3 fold

## CCc1cc(O)c(F)cc1-c1ccc2c(-c3nc4c([nH]3)CCN(C[C@@H]3CCCN3C)C4)n[nH]c2c1 [Example 11, (S)-5-ethyl-2-fluoro-4-(3-(5-((1-methylpyrrolidin-2-yl)methyl)-4,5,6,7-tetrahydro-1H-imidazo[4,5-c]pyridin-2-yl)-1H-indazol-6-yl)phenol]
JAK3
  Ki: 0.1 to 1 nM
JAK2
  Ki: < 0.1 nM
Tyk2
  Ki: 0.316 to 1 nM
[2]
  inhibition in vivo at 500 µg/mL: 33 to 50%
[4]
  Lung to Plasma ratio Assay 4: A (A denotes a ratio >100)
[1]; [8]
  IC50: < 10 nM
JAK1; ATP at Km 25 μM, read-out: JAK 1 (pKi) (converted)
  Ki: 0.1 to 1 nM
[5]
  Percent Inhibition of Alternaria-induced BALF Eosinophils: 71%

## CCc1cc(O)c(F)cc1-c1ccc2c(-c3nc4c([nH]3)CCN(CC3CCCOC3)C4)n[nH]c2c1 (stereo not drawn) [Example C-3, reference compound]
[2]
  factor by which lung concentration was smaller than that of the corresponding compound of the invention: 13
[1]
  fold less potent than the corresponding compound of the invention in the BEAS-2B cellular assay: 3 fold
JAK1
  fold less potent than the corresponding compound of the invention in the enzyme assay: 6 fold

## CCc1cc(O)c(F)cc1-c1ccc2c(-c3nc4c([nH]3)CCN(CCNC3CC(OC)C3)C4)n[nH]c2c1 (stereo not drawn) [Example 8, 5-Ethyl-2-fluoro-4-(3-(5-(2-((3-methoxycyclobutyl)amino)ethyl)-4,5,6,7-tetrahydro-1H-imidazo[4,5-c]pyridin-2-yl)-1H-indazol-6-yl)phenol]
JAK3
  Ki: 0.1 to 1 nM
JAK2
  Ki: < 0.1 nM
Tyk2
  Ki: 0.1 to 1 nM
[2]
  inhibition in vivo at 500 µg/mL: 50 to 65%
[4]
  Lung to Plasma ratio Assay 4: A (A denotes a ratio >100)
[1]; [8]
  IC50: < 10 nM
[5]
  Percent Inhibition of Alternaria-induced BALF Eosinophils: 60%
